Experiment: recombinant UMI read abundance after kanamycin selection (control-corrected) (log10(CPM+1)); higher = more efficient recombination; extreme values may be limits of the assay; sequences stand for … in AGTGCAGAGAAAATCGGCCAGTTTTCTCTGCCTGCAGTCCGCATGCCGTGGGACCCCTTGGGTTCTAACCTGTTGCCTAGATTTATGCAGCGGACTGCCTTTCTCCCAAAGTGATAAACCGG…AGGTTGGTTTCACT; site = the 11-nt donor
How it was run: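 Each donor and donor-binding-loop pair was tracked by a 12-nt UMI on a plasmid carrying a promoterless kanamycin gene. With a second plasmid supplying a fixed target and T7-inducible IS621 bridge recombinase, the pool was plated in Escherichia coli on IPTG (0.07 mM) plus kanamycin or unselected. Sequencing of recombinant UMIs across the donor–target junction gave counts expressed as log10(CPM+1) after replicate averaging and control-derived scaling.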
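Note: IS621 bridge recombinase in Escherichia coli cells against a fixed T5 target plasmid.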

Sequence | recombinant UMI read abundance (log10)
CGATCATCATGGACCGGTTTTCCCGGTAATCCGTATTTGCT (site CAATCATCTAT) | 0
CGATCATCATGGACCGGTTTTCCCGGTAATCCGTATTTGCT (site CAATCATCTGG) | 0
CGATCATCATGGACCGGTTTTCCCGGTAATCCGTATTTGCT (site CAATCGTCTAG) | 0.00456
CGATCATCATGGACCGGTTTTCCCGGTAATCCGTATTTGCT (site CAATGATCTAG) | 0
CGATCATCATGGACCGGTTTTCCCGGTAATCCGTATTTGCT (site CATTCATCTAG) | 1.44
CGATCATCATGGACCGGTTTTCCCGGTAATCCGTATTTGCT (site CCAGCATCTAG) | 0.0355
CGATCATCATGGACCGGTTTTCCCGGTAATCCGTATTTGCT (site CCATCAGCTAG) | 0
CGATCATCATGGACCGGTTTTCCCGGTAATCCGTATTTGCT (site CCATCATCTAA) | 0
CGATCATCATGGACCGGTTTTCCCGGTAATCCGTATTTGCT (site CCATCATCTAG) | 0.987
CGATCATCATGGACCGGTTTTCCCGGTAATCCGTATTTGCT (site CCATCATCTTG) | 0
CGATCATCATGGACCGGTTTTCCCGGTAATCCGTATTTGCT (site CCATCTTCTAG) | 0
CGATCATCATGGACCGGTTTTCCCGGTAATCCGTATTTGCT (site CCATTATCTAG) | 0
CGATCATCATGGACCGGTTTTCCCGGTAATCCGTATTTGCT (site CCGTCATCTAG) | 0.747
CGATCATCATGGACCGGTTTTCCCGGTAATCCGTATTTGCT (site CGAACACCTAG) | 0
CGATCATCATGGACCGGTTTTCCCGGTAATCCGTATTTGCT (site CGAACATCTAG) | 0.278
CGATCATCATGGACCGGTTTTCCCGGTAATCCGTATTTGCT (site CGAACATCTAT) | 0.00401
CGATCATCATGGACCGGTTTTCCCGGTAATCCGTATTTGCT (site CGAACATCTGG) | 0
CGATCATCATGGACCGGTTTTCCCGGTAATCCGTATTTGCT (site CGAACGTCTAG) | 0.00334
CGATCATCATGGACCGGTTTTCCCGGTAATCCGTATTTGCT (site CGAAGATCTAG) | 0
CGATCATCATGGACCGGTTTTCCCGGTAATCCGTATTTGCT (site CGACAATCTAG) | 0.437
CGATCATCATGGACCGGTTTTCCCGGTAATCCGTATTTGCT (site CGACCAACTAG) | 0.00386
CGATCATCATGGACCGGTTTTCCCGGTAATCCGTATTTGCT (site CGACCATCTAC) | 0
CGATCATCATGGACCGGTTTTCCCGGTAATCCGTATTTGCT (site CGACCATCTAG) | 2.55
CGATCATCATGGACCGGTTTTCCCGGTAATCCGTATTTGCT (site CGACCATCTCG) | 0.019
CGATCATCATGGACCGGTTTTCCCGGTAATCCGTATTTGCT (site CGACCCTCTAG) | 0.00441
CGATCATCATGGACCGGTTTTCCCGGTAATCCGTATTTGCT (site CGAGCAGCTAG) | 0

Sequence | recombinant UMI read abundance (log10)
CGATCATCATGGACCGGTTTTCCCGGTAATCCGTATTTGCT (site CGAGCATCTAA) | 0.0187
CGATCATCATGGACCGGTTTTCCCGGTAATCCGTATTTGCT (site CGAGCATCTAG) | 0
CGATCATCATGGACCGGTTTTCCCGGTAATCCGTATTTGCT (site CGAGCATCTTG) | 0
CGATCATCATGGACCGGTTTTCCCGGTAATCCGTATTTGCT (site CGAGCTTCTAG) | 0
CGATCATCATGGACCGGTTTTCCCGGTAATCCGTATTTGCT (site CGAGTATCTAG) | 0
CGATCATCATGGACCGGTTTTCCCGGTAATCCGTATTTGCT (site CGATAAACTAG) | 0.0203
CGATCATCATGGACCGGTTTTCCCGGTAATCCGTATTTGCT (site CGATAATCTAC) | 0
CGATCATCATGGACCGGTTTTCCCGGTAATCCGTATTTGCT (site CGATAATCTAG) | 0.558
CGATCATCATGGACCGGTTTTCCCGGTAATCCGTATTTGCT (site CGATAATCTCG) | 0
CGATCATCATGGACCGGTTTTCCCGGTAATCCGTATTTGCT (site CGATACTCTAG) | 0
CGATCATCATGGACCGGTTTTCCCGGTAATCCGTATTTGCT (site CGATCAACTAC) | 0.0107
CGATCATCATGGACCGGTTTTCCCGGTAATCCGTATTTGCT (site CGATCAACTAG) | 0
CGATCATCATGGACCGGTTTTCCCGGTAATCCGTATTTGCT (site CGATCAACTCG) | 0
CGATCATCATGGACCGGTTTTCCCGGTAATCCGTATTTGCT (site CGATCACCTAG) | 0
CGATCATCATGGACCGGTTTTCCCGGTAATCCGTATTTGCT (site CGATCACCTAT) | 0.0275
CGATCATCATGGACCGGTTTTCCCGGTAATCCGTATTTGCT (site CGATCACCTGG) | 0.009
CGATCATCATGGACCGGTTTTCCCGGTAATCCGTATTTGCT (site CGATCAGCTAA) | 0.00801
CGATCATCATGGACCGGTTTTCCCGGTAATCCGTATTTGCT (site CGATCAGCTAG) | 0
CGATCATCATGGACCGGTTTTCCCGGTAATCCGTATTTGCT (site CGATCAGCTTG) | 0
CGATCATCATGGACCGGTTTTCCCGGTAATCCGTATTTGCT (site CGATCATCTAA) | 0
CGATCATCATGGACCGGTTTTCCCGGTAATCCGTATTTGCT (site CGATCATCTAC) | 0
CGATCATCATGGACCGGTTTTCCCGGTAATCCGTATTTGCT (site CGATCATCTAG) | 1.82
CGATCATCATGGACCGGTTTTCCCGGTAATCCGTATTTGCT (site CGATCATCTAT) | 0
CGATCATCATGGACCGGTTTTCCCGGTAATCCGTATTTGCT (site CGATCATCTCC) | 0.00455
CGATCATCATGGACCGGTTTTCCCGGTAATCCGTATTTGCT (site CGATCATCTCG) | 0
CGATCATCATGGACCGGTTTTCCCGGTAATCCGTATTTGCT (site CGATCATCTGG) | 0

Source: the supplement of paper PMC11208160
